Experimental data reported in ChEMBL document CHEMBL3853312, “Blocking Blood Flow to Solid Tumors by Destabilizing Tubulin: An Approach to Targeting Tumor Growth” (J Med Chem, 2016).

Assays:
Assay type in all cases: ADME, organism-based
[1] = Apparent half life in human at 11.5 to 42 mg/m'-2, iv dosed as 30 mins infusion by LC-MS/MS analysis; conditions: in vivo, read-out: t1/2(app)
[2] = Tmax in human at 250 mg, po qd regimen measured on day 7 post dose by LC-MS analysis; conditions: in vivo
[3] = Drug excretion in iv dosed human urine assessed as unchanged compound administered as 30 mins infusion after 24 hrs by LC-MS/MS analysis; conditions: read-out: Drug excretion

SMILES: COc1ccc(/C=C\c2cc(OC)c(OC)c(OC)c2)cc1NC(=O)[C@@H](N)CO [OMBRABULIN]
- half-life [1]: 12 min

SMILES: COc1ccc(S(=O)(=O)Nc2cccnc2Nc2ccc(O)cc2)cc1 [ABT-751]
- Tmax [2]: 120 min

SMILES: COc1cc(C(=O)c2ccc(-c3csc(NC(=O)[C@@H](N)C(C)C)n3)cc2-n2cncn2)cc(OC)c1OC
- dose excreted at 24 h [3]: < 1%
